Reference: US8426447B2, “Spiro-tricyclic ring compounds as beta-secretase modulators and methods of use” (Amgen Inc., priority 2008, dated 2013)

Tests used:
BACE1 [1] = molecular target: T1, BACE1 (Homo sapiens, UniProt P56817); assay: In Vitro Enzymatic BACE FRET (Fluorescence Resonance Energy Transfer) Assay; format: biochemical
Summary of the method: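 Buffer 0.05 M acetate pH 4.2 with 10% DMSO final and 100 uM genapol; reaction started with 50 nM FRET peptide substrate (fluorophore/quencher flanking BACE cleavage site), incubated one hour. Stopped with Tris buffer raising pH to neutrality, then fluorescence read.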

BACE1 [2] = molecular target: T1, BACE1; assay: In Vitro BACE Cell-based Assay (HEK cell assay): Aβ40 in conditioned medium of cells stably expressing Amyloid Precursor Protein, sandwich ELISA
Summary of the method: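 HEK cells stably expressing APP were treated 24 h with compound in 10-point dose response starting at 100 or 10 μM (0.1% DMSO). Secreted Aβ40 quantified by sandwich ELISA (pAb40 capture, biotinylated 6E10 detection, europium time-resolved fluorescence), with IC50 derived from percent inhibition versus concentration.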

[3] = Table IV, class symbols, read-out: BACE1 FRET assay
[4] = Table IV, class symbols, read-out: HEK cell assay
[5] = Table II, read-out: BACE1 FRET assay
[6] = Table II, Aβ40, 24 h incubation, read-out: HEK cell assay
[7] = in vitro BACE FRET enzyme assay, IC50 class symbols, read-out: BACE1 FRET assay
[8] = HEK cell-based assay, Aβ40 in conditioned medium, IC50 class symbols, read-out: HEK cell assay

T1 sequence (P56817 46-501, species assumed): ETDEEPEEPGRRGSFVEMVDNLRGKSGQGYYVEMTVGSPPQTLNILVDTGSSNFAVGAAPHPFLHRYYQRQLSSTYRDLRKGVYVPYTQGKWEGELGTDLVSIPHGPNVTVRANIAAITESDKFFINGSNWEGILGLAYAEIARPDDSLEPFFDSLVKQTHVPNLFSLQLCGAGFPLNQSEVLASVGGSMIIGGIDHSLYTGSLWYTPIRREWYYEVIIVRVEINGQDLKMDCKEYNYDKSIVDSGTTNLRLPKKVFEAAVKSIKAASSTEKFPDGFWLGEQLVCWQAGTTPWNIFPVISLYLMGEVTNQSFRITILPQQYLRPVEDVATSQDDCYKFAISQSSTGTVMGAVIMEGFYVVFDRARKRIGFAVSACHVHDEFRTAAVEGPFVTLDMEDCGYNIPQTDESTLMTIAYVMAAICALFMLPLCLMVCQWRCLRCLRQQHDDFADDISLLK

Molecule `COC(C)(C)C#Cc1cc(F)c2c(c1)[C@@]1(COC(N)=N1)c1cc(-c3cncnc3)ccc1O2` [compound 674] has an IC50 (BACE1 [1]; read-out: BACE1 FRET assay) of 0.1 to 1 µM and an IC50 (BACE1 [2]; read-out: HEK cell assay) of 1 to 5 µM.
`NC1=N[C@@]2(CO1)c1cc(-c3cccnc3F)ccc1Oc1cnc(C3=CCOCC3)cc12` [Example 294, (S)-3-(3,6-dihydro-2H-pyran-4-yl)-7-(2-fluoropyridin-3-yl)-5′H-spiro[chromeno[2,3-c]pyridine-5,4′-oxazol]-2′-amine] was tested, and the IC50 (BACE1 [1]; BACE1 FRET assay, Table IV, class symbols) was less than 0.1 µM and the IC50 (BACE1 [2]; HEK cell assay, Table IV, class symbols) was less than 0.1 µM.
Molecule `Cc1ccc2c(c1)Oc1ccc(-c3cccc(Cl)c3F)cc1C21COC(N)=N1` (stereo not shown) [Example 26, 2′-(3-chloro-2-fluorophenyl)-6′-methylspiro[1,3-oxazole-4,9′-xanthen]-2-amine] has an IC50 (BACE1 [1]; Table 1, read-out: BACE1 FRET assay) greater than 5 µM and an IC50 (BACE1 [2]; Table 1, Aβ40, 24 h incubation, read-out: HEK cell assay) of 1 to 5 µM.
Molecule `CC(=O)COc1ccc2c(c1)[C@@]1(COC(N)=N1)c1cc(-c3cccnc3)cnc1O2` [compound 864] has an IC50 (BACE1 [1]; [3]) of 0.1 to 1 µM and an IC50 (BACE1 [2]; [4]) of 0.1 to 1 µM.
Molecule `CC(C)(C)OC(=O)/C=C/c1ccc2c(c1)[C@]1(COC(N)=N1)c1cc(-c3cncnc3)ccc1O2` [compound 994] has an IC50 (BACE1 [1]; read-out: BACE1 FRET assay) of 0.1 to 1 µM and an IC50 (BACE1 [2]; read-out: HEK cell assay) of 1 to 5 µM.
Molecule `NC1=N[C@]2(CO1)c1cc(OCC3CCCC3)ccc1Oc1ccc(-c3cncnc3)cc12` [Example 74, (4S)-2′-(cyclopentylmethoxy)-7′-(5-pyrimidinyl)spiro[1,3-oxazole-4,9′-xanthen]-2-amine] has an IC50 (BACE1 [1]; [5]) of less than 0.1 µM and an IC50 (BACE1 [2]; [6]) of less than 0.1 µM.
Molecule `CC(C)(C)COc1ccc2c(c1)[C@]1(COC(N)=N1)c1cc(-c3cc(Cl)ccc3F)cnc1O2` [Example 69, (5R)-3-(5-chloro-2-fluorophenyl)-7-(2,2-dimethylpropoxy)spiro[chromeno[2,3-b]pyridine-5,4′-[1,3]oxazol]-2′-amine] has an IC50 (BACE1 [1]; [5]) of less than 0.1 µM and an IC50 (BACE1 [2]; [6]) of 1 to 5 µM.
`CC(C)(C)C#Cc1cnc2c(c1)[C@@]1(COC(N)=N1)c1cc(Oc3ccccn3)ccc1O2` [compound 927] showed an IC50 (BACE1 [1]; read-out: BACE1 FRET assay) of 0.1 to 1 µM and an IC50 (BACE1 [2]; read-out: HEK cell assay) of 1 to 5 µM.
`CC(C)(C)COc1ccc2c(n1)[C@@]1(COC(N)=N1)c1cc(Br)ccc1O2` [compound 734] was tested, and the IC50 (BACE1 [1]; read-out: BACE1 FRET assay) was greater than 5 µM and the IC50 (BACE1 [2]; read-out: HEK cell assay) was greater than 5 µM.
`NC1=N[C@]2(CO1)c1cc(Br)ccc1Oc1cnc(Cl)cc12` [compound 549] was tested, and the IC50 (BACE1 [1]; [3]) was greater than 5 µM and the IC50 (BACE1 [2]; [4]) was greater than 5 µM.
`COC(C)(C)COc1ccc2c(c1)[C@]1(COC(N)=N1)c1cc(C#CC3CC3)ccc1O2` [compound 982] was tested, and the IC50 (BACE1 [1]; read-out: BACE1 FRET assay) was less than 0.1 µM and the IC50 (BACE1 [2]; read-out: HEK cell assay) was 0.1 to 1 µM.
`COC(C)(C)COc1ccc2c(c1)[C@@]1(COC(N)=N1)c1cc(-c3ccccc3)cnc1O2` [compound 818] gave an IC50 (BACE1 [1]; [3]) of less than 0.1 µM and an IC50 (BACE1 [2]; [4]) of less than 0.1 µM.
For `CC(C)(C)COc1ccc2c(c1)[C@]1(COC(N)=N1)c1cc(-c3cnc4ccccn34)ccc1O2` [compound 975], the IC50 (BACE1 [1]; read-out: BACE1 FRET assay) was 0.1 to 1 µM and the IC50 (BACE1 [2]; read-out: HEK cell assay) was 0.1 to 1 µM.
`NC1=N[C@@]2(CO1)c1cc(-c3cccnc3)ccc1Oc1cnc(-c3cccnc3)cc12` [compound 902] gave an IC50 (BACE1 [1]; [3]) of less than 0.1 µM and an IC50 (BACE1 [2]; [4]) of less than 0.1 µM.
`CC(C)(C)COc1ccc2c(c1)[C@]1(COC(N)=N1)c1cc(-c3ccc(Cl)nc3)ccc1O2` [compound 887] showed an IC50 (BACE1 [1]; [3]) of less than 0.1 µM and an IC50 (BACE1 [2]; [4]) of 0.1 to 1 µM.
`NC1=N[C@@]2(CO1)c1cc(Br)ccc1Oc1ncccc12` [compound 601] showed an IC50 (BACE1 [1]; [3]) greater than 5 µM and an IC50 (BACE1 [2]; [4]) greater than 5 µM.
Work on `COc1ccc2c(c1)[C@]1(COC(N)=N1)c1cc(C#CC(C)(C)OC)cnc1O2` [compound 901] yielded an IC50 (BACE1 [1]; [3]) of 1 to 5 µM and an IC50 (BACE1 [2]; [4]) greater than 5 µM.
For `Cc1ccccc1-c1ccc2c(c1)[C@]1(COC(N)=N1)c1cccnc1O2` [compound 609], the IC50 (BACE1 [1]; [3]) was greater than 5 µM and the IC50 (BACE1 [2]; [4]) was greater than 5 µM.
`NC1=N[C@@]2(CO1)c1cc(-c3cccnc3)ccc1Oc1ccc(-c3cncs3)cc12` [compound 660] was tested, and the IC50 (BACE1 [1]; [3]) was less than 0.1 µM and the IC50 (BACE1 [2]; [4]) was less than 0.1 µM.
`COc1cncc(-c2ccc3c(c2)[C@@]2(COC(N)=N2)c2cc(C#CC(C)(C)OC)cnc2O3)c1` [compound 602] was tested, and the IC50 (BACE1 [1]; [3]) was less than 0.1 µM and the IC50 (BACE1 [2]; [4]) was less than 0.1 µM.
`CC(C)(C)CCOc1ccc2c(c1)[C@]1(COC(N)=N1)c1cc(-c3cncnc3)ccc1O2` [Example 70, (4S)-2′-(3,3-dimethylbutoxy)-7′-(5-pyrimidinyl)spiro[1,3-oxazole-4,9′-xanthen]-2-amine] was tested, and the IC50 (BACE1 [1]; [5]) was less than 0.1 µM and the IC50 (BACE1 [2]; [6]) was 0.1 to 1 µM.
Molecule `COCC(=O)Nc1ccc2c(c1)[C@@]1(COC(N)=N1)c1cc(OCC(C)(C)C)ccc1O2` [compound 375] has an IC50 (BACE1 [1]; [7]) of less than 0.1 µM and an IC50 (BACE1 [2]; [8]) of 0.1 to 1 µM.
With `CC(C)(F)COc1ccc2c(c1)[C@]1(COC(N)=N1)c1cc(-c3cccnc3)ccc1O2` [compound 148] the IC50 (BACE1 [1]; Table III, IC50's in uM ranges, read-out: BACE1 FRET assay) was less than 0.1 µM and the IC50 (BACE1 [2]; Table III, IC50's in uM ranges, read-out: HEK cell assay) was less than 0.1 µM.
With `NC1=N[C@]2(CO1)c1cc(-c3cc4ccccc4s3)ccc1Oc1ncccc12` [compound 618] the IC50 (BACE1 [1]; [3]) was greater than 5 µM and the IC50 (BACE1 [2]; [4]) was 1 to 5 µM.
In the case of `CC(C)(C)CC(=O)c1ccc2c(c1)[C@]1(CSC(N)=N1)c1cc(-c3cncnc3)ccc1O2` [compound 761], the IC50 (BACE1 [1]; read-out: BACE1 FRET assay) is reported as less than 0.1 µM and the IC50 (BACE1 [2]; read-out: HEK cell assay) is reported as 0.1 to 1 µM.
`Cc1cc(-c2ccc3c(n2)[C@]2(COC(N)=N2)c2cc(-c4cccnc4F)ccc2O3)ccn1` [compound 401] gave an IC50 (BACE1 [1]; [7]) of 0.1 to 1 µM and an IC50 (BACE1 [2]; [8]) of less than 0.1 µM.
